Results: US8119599B2, “Direct application of non-toxic crosslinking reagents to resist progressive spinal degeneration and deformity” (Orthopeutics, L.P., priority 2001, dated 2012)

Key:
[1] = test system: posterior intervertebral disc (lumbar intervertebral joints); experiment: Indentation stress relaxation of posterior annulus before and after compression/flexion fatigue cycling; set-up: species or system calf; settings: soaking calf disc tissue in 0.33% concentration of genipin
Experimental: (§1) Thirty-three lumbar intervertebral joints were obtained from ten four-month-old calf spines. The intervertebral joints were arbitrarily divided into 3 groups: untreated controls-12 specimens, Genipin treatment 1 (G1)-6 specimens, and Genipin treatment 2 (G2)-13 specimens. The G1 treatment involved 72 hours of soaking the whole specimen in PBS with a 0.033% concentration of Genipin. Similarly the G2 treatment involved 72 hours of soaking whole specimens in PBS with 0.33% concentration of Genipin. 0.33% Genipin in PBS is produced by dilution of 50 ml of 10 times. PBS (Phosphate Buffered Saline) with distilled water by a factor of 10 to give 500 ml (500 gm) of PBS and mixing in 1.65 grams of genipin to produce the 0.33% (wt %, gm/gm) solution. […] Some controls were not subjected to soaking prior to fatigue testing. Others were soaked in a saline solution for 72 hours. Water mass loss experiments were conducted to establish the equivalency of outer annulus hydration between the genipin soaked and 0.9% saline soaked controls. The selection of treatments was randomized by spine and level. The vertebral ends of the specimens were then potted in polyurethane to facilitate mechanical testing. At the prescribed points in the loading regimen, indentation testing was used to find viscoelastic properties as follows. Stress relaxation data was gathered by ramp loading the 3 mm diameter hemi-spherical indenter to 10 N and subsequently holding that displacement for 60 s, while recording the resulting decrease in stress, referred to as the stress relaxation. Indentation testing was also utilized to determine elastic-plastic properties by calculating a hardness index (resistance to indentation) from ramp loading data. Prior to recording hardness measurements, the tissue is repeatedly indented 10 times (60 s/cycle, to the displacement at an initial 10 N load). This test protocol is based on two principles. First, viscoelastic effects asymptotically decrease with repeated loading. Secondly, hardness measurements are sensitive to the loading history of the tissue. However this effect becomes negligible following 10 loading cycles. In order to minimize these effects, viscoelastic data (stress relaxation) was collected from tissue that had not previously been indented. Alternately, elastic-plastic data (hardness) was collected from tissue that had been repeatedly loaded (preconditioned). In this case, repetitive indentation was intended to reduce the undesired effects of the changing viscoelastic properties, namely lack of repeatability, on hardness measurements. These testing procedures were derived from several preliminary experiments on the repeatability of the measurements with variations of loading history and location. Following initial indentation testing, the specimen was loaded repetitively in flexion-compression at 200 N for 3000 cycles at a rate of 0.25 Hz. The load was applied perpendicularly to the transverse plane, 40 mm anterior to the mid-point of the specimen in the transverse plane. A second set of indentation testing data is then collected following fatigue cycling. This procedure was followed for two fatigue loading cycles. During all testing, the specimens were wrapped in saline wetted gauze to maintain their moisture content. […] Several statistical measures were calculated to evaluate the significance of the results. […]

[2] = test system: posterior intervertebral disc (lumbar intervertebral joints); experiment: Indentation hardness of posterior annulus before and after compression/flexion fatigue cycling; set-up: species or system calf; settings: 0.33% Genipin soak; up to 3000 fatigue cycles
Experimental: as §1, with “measurements.” for “measurements. These testing procedures were derived from several preliminary experiments on the repeatability of the measurements with variations of loading history and location. Following initial indentation testing, the specimen was loaded repetitively in flexion-compression at 200 N for 3000 cycles at a rate of 0.25 Hz. The load was applied perpendicularly to the transverse plane, 40 mm anterior to the mid-point of the specimen in the transverse plane. A second set of indentation testing data is then collected following fatigue cycling. This procedure was followed for two fatigue loading cycles. During all testing, the specimens were wrapped in saline wetted gauze to maintain their moisture content.”

[3] = test system: intervertebral discs (nucleus pulposus, inner and outer annulus fibrosus); experiment: Hydration change / fluid flux of disc regions after soaking, creep loading and resoaking; set-up: species or system calf (4 month old bovine); settings: for Water content, Gr C2: 0.33% Genipin 2 days, then 750N creep loading 1 hour; for % increase by Genipin (flux versus control) / Genipin Flux / % increase by Genipin (fluid flow into and out of the nucleus versus control): 0.33% genipin; for Water content, Gr B2: 1 day PBS then 2 days 0.33% genipin solution; for Water content, Gr D2: 0.33% genipin 2 days, 750N creep 1 hour, PBS another day
Source text: By measuring the change in hydration of different regions of the intervertebral disc (nucleus pulposus, inner annulus, and outer annulus fibrosus) prior to and after periods of soaking, sustained compressive loading, and resoaking, the fluid flux to and from different regions can be determined. By comparing these measurements between control discs and discs treated with crosslinking reagents known to have minimal cytotoxicity, we see the effect of crosslinking treatment on fluid flux and permeability. A total of 24 calf (4 month old bovine) intervertebral discs were used for this study. Water content of three different areas of the […] tissue were tested-the nucleus pulposus, inner annulus fibrosus and outer annulus fibrosus. Hydration change was determined by weighing the specimen using a micro-balance (sensitivity: 0.1 mg). Water content (M) was calculated as: M=(Wet Weight-Dry Weight)/Wet Weight=g H2O/g Wet Weight The drying procedure consisted of putting the specimens in the oven with a controlled temperature of 90 degree C. for 24 hours. The specimens were separated into four tests: 1. Group A: Three specimens were in this group. It served as a control group. The specimens were soaked in PBS (phosphate buffered saline) for 1 day and then the hydration analysis was performed. 2. Group B1: Four specimens were in this group. In addition to the one day PBS soaking, the specimens soaked in PBS for 2 more days as a control and then the hydration analysis was performed. Group B2: Five specimens were in this group. In addition to the one day PBS soaking, the specimens were soaked in 0.33% genipin solution for 2 days and then the hydration analysis was performed. 3. In group C, a small daytime amount of constant compressive loading (creep) was simulated. C1: Three specimens were in this group. The specimens were soaked in PBS for 3 days and then […] of compression was applied by a materials testing machine for 1 hour. The disc was compressed in a 5 degree of flexion posture produced by two rollers attached to the loading ram of the materials testing machine. The hydration analysis was performed immediately after the creep loading. C2: Three specimens were in this group. The specimens were soaked in 0.33% Genipin solution for 2 days after 1 day of PBS soaking and performed identical creep loading with […] compressive load. The hydration analysis was performed immediately after the creep loading. 4. In group D, the imbibition of water following a period of compressive loading that typically occurs in the night time as a person is in a recumbent posture was simulated. D1: The specimens were soaked in PBS solution for 3 days and then 1 hour of creep loading at 750 N was applied. After the creep loading, the specimens were placed in a container in 1 PBS for one more day followed by the hydration analysis. D2: Three specimens were included and were soaked in 0.33% genipin solution for 2 days after one day of PBS soaking. A creep load of […] for one hour was then applied. The specimens were put in PBS for another day followed by the hydration analysis.

[4] = test system: annulus fibrosus specimens from lumbar intervertebral discs; experiment: Radial tear resistance test of annulus fibrosus specimens; set-up: species or system bovine; settings: soaked two days in 0.15M PBS plus 0.33% genipin
Source text: Ten annulus fibrosus circumferentially aligned specimens from bovine lumbar (T12-L5) intervertebral discs were divided into two groups and either soaked two days in a 0.15M PBS or a 0.15M PBS plus 0.33% genipin solution. A custom loading fixture attached to a uniaxial materials testing system was designed to hold an annulus specimen perpendicular to the travel of a metal cylinder placed in a pre-existing radial cut. The cylinder was then pulled radially (perpendicular to lamellae) towards the external layer. Time dependent force and displacement data was acquired simultaneously. Tearing resistance was quantified in two ways: peak force normalized by specimen thickness and tearing energy per area of tear. Differences between groups were analyzed using the Mann-Whitney non-parametric test.

[5] = compared to other more commonly used crosslinking agents; cited from earlier work
[6] = test system: collagenous, load-supporting tissues; settings: compared with other crosslinking reagents (Sung 1999b); cited from earlier work

## COC(=O)C1=CO[C@@H](O)[C@@H]2C(CO)=CC[C@H]12 [genipin]
[1]
  reduction in viscoelastic degradation: More than a three-fold reduction
[2]
  persistence of hardness improvement under fatigue cycling: unable to sustain an improvement in the elastic mechanical properties (hardness) to 3000 test cycles
[3]; Inner AF
  Water content, Gr C2: 0.7394 g H2O/g Wet Weight
  % increase by Genipin (flux versus control): 17.3%
  Genipin Flux: 0.1008
  Water content, Gr B2: 0.7629 g H2O/g Wet Weight
[3]; NP
  Water content, Gr C2: 0.817 g H2O/g Wet Weight
  % increase by Genipin (fluid flow into and out of the nucleus versus control): 64%
  Genipin Flux: 0.04983
  Water content, Gr D2: 0.8524 g H2O/g Wet Weight
  Water content, Gr B2: 0.8314 g H2O/g Wet Weight
[3]; NP, listed as Genipin
  % increase by Genipin (fluid flow into and out of the nucleus versus control): 63.7%
[3]; Outer AF
  Water content, Gr C2: 0.6924 g H2O/g Wet Weight
  % increase by Genipin (flux versus control): 5.7%
  Genipin Flux: 0.05294
  Water content, Gr D2: 0.711 g H2O/g Wet Weight
  Water content, Gr B2: 0.7268 g H2O/g Wet Weight
[4]
  Normalized peak force (peak force normalized by specimen thickness): 42.7 N/mm
  Total energy per area of tear: 40.2 mJ/mm^2
[5]
  cytotoxicity: significantly less cytotoxicity
[6]
  ultimate tensile strength and toughness: greater ultimate tensile strength and toughness
